Measured values: patent US10246448B2, “4-hydroxy-2-phenyl-1,3-thiazol-5-yl methanone derivatives as TRPM8 antagonists” (DOMPÉ FARMACEUTICI S.P.A., priority 2015, dated 2019)
pIC50: −log10 of the molar value.

Columns and labels:
[1] = Metabolic stability in rat microsomes, Phase I assay; assay type: in vitro ADME; details: for intrinsic clearance half-life (in words): metabolic stability in rat microsomes; for half-life at 1 μM: pH 7.4, rat liver microsomes 0.5 mg/ml, compound 1 μM, NADP cofactors mixture, 37° C., read-out: Metabolic Stability (t1/2, min) Phase1
Experimental: Compounds 1, 2, 8 and 9 in duplicate were dissolved in DMSO and pre-incubated, at the final concentration of 1 μM, for 10 min at 37° C. in potassium phosphate buffer 50 mM pH 7.4, 3 mM MgCl2, with rat liver microsomes (Xenotech) at the final concentration of 0.5 mg/ml.
After the pre-incubation period, reactions were started by adding the cofactors mixture (NADP, Glc6P, Glc6P-DH in 2% Sodium bicarbonte); samples (50 μl) were taken at time 0, 10, 20, 30 and 60 min added to 150 μl of acetonitrile with Verapamil 0.02 μM as Internal Standard (IS) to stop the reaction. After centrifugation the supernatants were analysed by LC-MS/MS.
A control sample without cofactors was added in order to check the stability of test compounds in the matrix after 60 min. 7-Ethoxycoumarin and propranolol were added as reference standards.

[2] = Metabolic stability in rat microsomes, Phase II assay; assay type: in vitro ADME; details: pH 7.4; rat liver microsomes 0.5 mg/mL, Alamethicin activated, UDPGA, compound 1 μM, 37° C.; read-out: Metabolic Stability (t1/2, min) Phase2
Experimental: Rat liver microsomes (0.5 mg/mL final conc.) were incubated in ice for 15 min in 50 mM potassium phosphate buffer pH 7.4, 3 mM MgCl2 and activated with Alamethicin 50 μg/mg microsomal protein. Samples were transferred at 37° C. and compounds 1, 2, 8 and 9, dissolved in DMSO, were added in duplicate at the final concentration of 1 μM. After 5 min, reaction is started by adding 25 μl of UDPGA (16.15 mg/ml in 0.2% Sodium Bicarbonate). Samples were taken at time 0, 10, 20, 30 and 60 min added to 150 μl of acetonitrile with Verapamil 0.02 uM as Internal Standard (IS) to stop the reaction. After centrifugation the supernatants were analysed by LC-MS/MS. 7-Hydroxycoumarin was added as reference standard.

[3] = target: T1, human TRPM8 (Homo sapiens, UniProt Q7Z2W7); assay: In vitro TRPM8 assay: intracellular calcium levels, Ca2+ sensitive fluorescent dye (FLIPR), agonist Icilin or Cooling Agent 10; assay type: cell-based; set-up: expressed in transfected cells; details: HEK-293 cells stably expressing human TRPM8
Experimental: The TRPM8 antagonistic activity of all 26 compounds was determined by measuring changes in intracellular calcium levels using a Ca^+2 sensitive fluorescent dye. The experiments were performed using HEK-293 cells stably expressing the human TRPM8. Cells were seeded 10000 cells/well in 384 plates coated by Poly-D-Lysine MATRIX black/clear bottom (Thermo Scientific, Waltham, Mass. USA) in complete medium and grown overnight at 37° C., 5% CO2. 24 h after seeding, cell culture media was removed, cells were washed with Tyrode's assay buffer and then loaded with the fluorescent Ca^+2 indicator Fluo-4 NW dye (Molecular Probes, Life Technologies, Paisley, UK) supplemented with water-soluble Probenecid (Molecular Probes). Dye loaded cell plates were incubated for 1 h at room temperature. The compounds or vehicle were added and the kinetic response was monitored by a fluorimetric imaging plate ([…]; Molecular Devices, Sunnyvale, Calif., USA) over a period of five minutes (300 seconds). A second injection 5 minutes later of the reference agonist Cooling Agent 10 or Icilin at EC80 concentration was performed. The signal of the emitted fluorescence was recorded during additional three minutes. Data were analyzed by Spotfire DecisionSite version 9.1.1. The bioactivity exerted by the compounds or vehicle was expressed as a percent inhibition and IC50 values were then calculated.

[4] = target: T1, human TRPM8; assay: In vitro cold stimulation assay
Experimental: The TRPM8 antagonisticic activity of all 26 compounds was determined in an in vitro cold stimulation assay.
3-4 days after seeding (˜80% confluent cells), the medium was removed and cells were loaded by a solution of Screen Quest™ Fluo-8 NW dye (ABS Bioquest, Sunnyvale, Calif., USA) in the dark. Dye-loaded cell flasks were incubated for 45 minutes at room temperature in the dark and the Fluo-8 NW solution was then removed and cells were seeded in the 96 Assay Plates (MicroAmp™ Optical 96-Well Reaction Plates; Applied Biosystems, Life technologies) at 100,000 cells/'well (20 μl/well). […] All data point determinations were performed in duplicate before a mean value was calculated, including error bars representing the standard error of the mean.

[5] = agonist Cooling Agent 10 at EC80, read-out: Ca2+ (IC50 μM) Cool 10
[6] = agonist Icilin at EC80, read-out: Ca2+ (IC50 μM) Icilin

T1 sequence (Q7Z2W7 whole entry): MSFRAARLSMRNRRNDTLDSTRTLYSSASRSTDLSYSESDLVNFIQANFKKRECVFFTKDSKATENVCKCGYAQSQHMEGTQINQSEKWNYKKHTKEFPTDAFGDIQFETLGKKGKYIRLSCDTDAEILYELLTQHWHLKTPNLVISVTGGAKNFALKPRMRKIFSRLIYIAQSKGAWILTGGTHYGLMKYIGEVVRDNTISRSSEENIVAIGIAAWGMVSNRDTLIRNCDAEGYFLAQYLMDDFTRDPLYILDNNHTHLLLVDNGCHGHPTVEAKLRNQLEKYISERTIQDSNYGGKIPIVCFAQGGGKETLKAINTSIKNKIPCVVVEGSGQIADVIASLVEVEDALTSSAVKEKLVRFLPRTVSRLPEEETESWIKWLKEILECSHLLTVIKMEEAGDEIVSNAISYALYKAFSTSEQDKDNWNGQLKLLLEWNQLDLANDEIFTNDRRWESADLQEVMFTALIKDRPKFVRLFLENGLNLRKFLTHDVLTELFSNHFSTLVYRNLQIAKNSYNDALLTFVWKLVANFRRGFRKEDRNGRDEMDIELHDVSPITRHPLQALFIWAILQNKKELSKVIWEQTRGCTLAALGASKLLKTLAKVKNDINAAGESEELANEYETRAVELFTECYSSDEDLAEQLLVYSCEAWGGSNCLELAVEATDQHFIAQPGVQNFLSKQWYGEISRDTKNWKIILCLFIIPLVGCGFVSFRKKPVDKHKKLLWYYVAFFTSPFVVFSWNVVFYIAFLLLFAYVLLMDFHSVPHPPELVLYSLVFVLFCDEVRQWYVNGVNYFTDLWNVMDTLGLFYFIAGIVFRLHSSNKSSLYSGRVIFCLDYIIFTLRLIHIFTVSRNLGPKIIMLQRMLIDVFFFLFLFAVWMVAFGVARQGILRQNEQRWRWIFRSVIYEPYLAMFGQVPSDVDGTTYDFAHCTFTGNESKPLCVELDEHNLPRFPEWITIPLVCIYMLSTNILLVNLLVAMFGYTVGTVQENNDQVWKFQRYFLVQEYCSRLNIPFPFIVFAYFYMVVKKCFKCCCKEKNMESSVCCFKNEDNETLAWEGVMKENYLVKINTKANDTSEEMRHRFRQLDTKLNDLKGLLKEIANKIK

intrinsic clearance half-life (in words) [1] | half-life at 1 μM [1] | half-life at 1 μM [2] | IC50 [3, 5] | IC50 [3, 6] | pIC50 [4] | SMILES
highest intrinsic clearance half-life | 98 min | 51 min | 0.167 µM | 0.123 µM | 8.10 | O=C(c1sc(-c2cccc(F)c2)nc1O)N1CCCCO1 [Example 9, [2-(3-fluorophenyl)-4-hydroxy-1,3-thiazol-5-yl](1,2-oxazinan-2-yl)methanone]
– | 32 min | 35 min | 0.651 µM | 0.745 µM | 6.18 | O=C(c1sc(-c2cccc(F)c2)nc1O)n1cccc1 [Example 21, [2-(3-fluorophenyl)-4-hydroxy-1,3-thiazol-5-yl](1H-pyrrol-1-yl)methanone]
– | 67 min | 65 min | 1.51 µM | 1.47 µM | 6.01 | O=C(c1sc(-c2cccc(F)c2)nc1O)N1CCCCC1 [Example 14, [2-(3-fluorophenyl)-4-hydroxy-1,3-thiazol-5-yl](piperidin-1-yl)methanone]
– | 75 min | 63 min | 0.121 µM | 0.143 µM | 7.34 | O=C(c1sc(-c2cccc(F)c2)nc1O)N1CCCCCO1 [Example 27, [2-(3-fluorophenyl)-4-hydroxy-1,3-thiazol-5-yl](1,2-oxazepan-2-yl)methanone]
– | 85 min | 67 min | 0.94 µM | 0.082 µM | 7.30 | O=C(c1sc(-c2cccc(F)c2)nc1O)n1ccnn1 [Example 31, [2-(3-fluorophenyl)-4-hydroxy-1,3-thiazol-5-yl](1H-1,2,3-triazol-1-yl)methanone]
– | 54 min | 32 min | 0.963 µM | 1.21 µM | 6.07 | O=C(c1sc(-c2cccc(F)c2)nc1O)N1CCOCC1 [Example 12, [2-(3-fluorophenyl)-4-hydroxy-1,3-thiazol-5-yl](morpholin-4-yl)methanone]
– | 82 min | 85 min | 0.084 µM | 0.087 µM | 7.16 | O=C(c1sc(-c2cccc(F)c2)nc1O)N1CC2CCCC2O1 (centres unmarked) [Example 30, [2-(3-fluorophenyl)-4-hydroxy-1,3-thiazol-5-yl](hexahydro-2H-cyclopenta[d][1,2]oxazol-2-yl)methanone]
highest intrinsic clearance half-life | 185 min | 120 min | – | – | – | O=C(c1sc(-c2cccc(F)c2)nc1O)N1CCCO1 [Example 1, [2-(3-fluorophenyl)-4-hydroxy-1,3-thiazol-5-yl](1,2-oxazolidin-2-yl)methanone]
– | 91 min | 78 min | 0.091 µM | 0.111 µM | 7.51 | CC1CCN(C(=O)c2sc(-c3cccc(F)c3)nc2O)O1 (centres unmarked) [Example 29, [2-(3-fluorophenyl)-4-hydroxy-1,3-thiazol-5-yl](5-methyl-1,2-oxazolidin-2-yl) methanone]
– | 46 min | 51 min | 1.36 µM | 1.56 µM | 5.91 | O=C(c1sc(-c2cccc(F)c2)nc1O)N1CCCC1 [Example 7, [2-(3-fluorophenyl)-4-hydroxy-1,3-thiazol-5-yl](pyrrolidin-1-yl)methanone]
– | 45 min | 40 min | 1.25 µM | 1.25 µM | 6.01 | O=C(c1sc(-c2cccc(F)c2)nc1O)n1ccnc1 [Example 25, [2-(3-fluorophenyl)-4-hydroxy-1,3-thiazol-5-yl](1H-imidazol-1-yl)methanone]
– | 78 min | 55 min | – | – | – | O=C(c1sc(-c2cccc(F)c2)nc1O)N1CCOC1 [Example 3, [2-(3-fluorophenyl)-4-hydroxy-1,3-thiazol-5-yl](1,3-oxazolidin-3-yl)methanone]

Second part, the compound before the results:

SMILES | intrinsic clearance half-life (in words) [1] | half-life at 1 μM [1] | half-life at 1 μM [2] | IC50 [3, 5] | IC50 [3, 6] | pIC50 [4]
O=C(c1sc(-c2ccccc2O)nc1O)N1CCCCO1 [Example 8, [4-hydroxy-2-(2-hydroxyphenyl)-1,3-thiazol-5-yl](1,2-oxazinan-2-yl)methanone] | highest intrinsic clearance half-life | 102 min | 43 min | – | – | –
O=C(c1cccs1)c1sc(-c2cccc(F)c2)nc1O [Example 20, [2-(3-fluorophenyl)-4-hydroxy-1,3-thiazol-5-yl](thiophen-2-yl)methanone] | – | 68 min | 59 min | 0.96 µM | 1.11 µM | 5.86
O=C(c1sc(-c2ccccc2O)nc1O)N1CCCOC1 [Example 11, [4-hydroxy-2-(2-hydroxyphenyl)-1,3-thiazol-5-yl](1,3-oxazinan-3-yl)methanone] | – | 51 min | 50 min | 0.281 µM | 0.256 µM | 6.97
O=C(c1sc(-c2cccc(F)c2)nc1O)n1cccn1 [Example 26, [2-(3-fluorophenyl)-4-hydroxy-1,3-thiazol-5-yl](1H-pyrazol-1-yl)methanone] | – | 89 min | 86 min | 1.65 µM | 1.32 µM | 5.88
Cn1cccc1C(=O)c1sc(-c2cccc(F)c2)nc1O [Example 18, [2-(3-fluorophenyl)-4-hydroxy-1,3-thiazol-5-yl](1-methyl-1H-pyrrol-2-yl)methanone] | – | 78 min | 55 min | 1.08 µM | 1.09 µM | 5.84
O=C(c1sc(-c2cccc(F)c2)nc1O)N1CC2(CC2)CO1 [Example 28, [2-(3-fluorophenyl)-4-hydroxy-1,3-thiazol-5-yl](5-oxa-6-azaspiro[2.4]heptan-6-yl) methanone] | – | 73 min | 61 min | 0.086 µM | 0.143 µM | 7.27
CN1CCCC1C(=O)c1sc(-c2cccc(F)c2)nc1O (centres unmarked) [Example 16, [2-(3-fluorophenyl)-4-hydroxy-1,3-thiazol-5-yl](1-methylpyrrolidin-2-yl)methanone] | – | 32 min | 34 min | 1.34 µM | 1.36 µM | 6.00
Cn1nnnc1C(=O)c1sc(-c2cccc(F)c2)nc1O [Example 32, [2-(3-fluorophenyl)-4-hydroxy-1,3-thiazol-5-yl](1-methyl-1H-tetrazol-5-yl)methanone] | – | 81 min | 69 min | 0.098 µM | 0.101 µM | 7.20
O=C(c1sc(-c2ccccc2O)nc1O)N1CCCO1 [Example 2, [4-hydroxy-2-(2-hydroxyphenyl)-1,3-thiazol-5-yl](1,2-oxazolidin-2-yl)methanone] | highest intrinsic clearance half-life | 97 min | 86 min | 0.011 µM | 0.012 µM | 8.26
O=C(c1ccccn1)c1sc(-c2cccc(F)c2)nc1O [Example 22, [2-(3-fluorophenyl)-4-hydroxy-1,3-thiazol-5-yl](pyridin-2-yl)methanone] | – | 52 min | 55 min | 0.523 µM | 0.54 µM | 6.32
O=C(c1sc(-c2ccccc2O)nc1O)C1CCCO1 (centres unmarked) [Example 6, [4-hydroxy-2-(2-hydroxyphenyl)-1,3-thiazol-5-yl](oxolan-2-yl)methanone] | – | 56 min | 33 min | 0.401 µM | 0.452 µM | 6.64
